Reference: patent US9675593B2, “Anti-fibrotic pyridinones” (InterMune, Inc., priority 2012, dated 2017)

Tested on: TGF-b induced Endothelin-1 (ET-1) production
Test: ET-1 assay: inhibitory effect on TGF-b induced endothelin-1 production
Type: cell-based
Conditions: Homo sapiens, Fibroblast; fibroblasts, stimulant (TGFb, serum, LPA etc), ET-1 by ELISA
Experimental: Assay of Inhibitory Effect on TGF-b induced Endothelin-1 Production
Fibroblasts (primary human lung and dermal, HFL-1, 3T3 etc) are seeded in 96-well plates at ˜15000 cells/well and serum starved for 0-48 hours. After media exchange, compounds serially diluted in DMSO are added to the cells. After a brief incubation of ˜30 min, stimulants (TGFb, serum, LPA etc) are added followed by further incubation for 16-48 hours. Media is then harvested and stored frozen in plate format for later endothelin-1 (ET-1) determination by ELISA. Toxicity measurements are made using the ATPlite kit (Perkin-Elmer). ET-1 is quantified using an ELISA kit (R&D Systems). The amount of ET-1 produced in the assay wells are back-calculated using the ELISA standard. The ability of a compound to inhibit ET-1 production is typically analyzed by fitting dose-response curves to a 4-parameter logistic function to obtain an EC50 value. A measure of cytotoxicity (CC50) is likewise reported from the same experiment using the ATPlite data.

| SMILES | EC50 [µM] |
| --- | --- |
| O=C(Nc1cc(=O)n(-c2ccc(OC(F)(F)F)cc2)cc1-c1ccc(F)cc1)Oc1ccccc1 [Compound 113] | > 200 |
| Cc1cc(-c2cnn(C)c2)cn(-c2ccc(OC(F)(F)F)cc2)c1=O [Compound 352] | 50 to 200 |
| O=c1ccc(-c2ccnnc2)cn1-c1ccc(OC(F)(F)F)cc1 [Compound 347] | 50 to 200 |
